We go through seven compounds from PMC9142968, “Nitro-Group-Containing Thiopeptide Derivatives as Promising Agents to Target Clostridioides difficile” (Pharmaceuticals, 2022).

Converted amounts (≈) assume the structure as drawn. Read-outs that look alike come from different tables or passages of the source.

One series relates to S. aureus. Nature of the series: MIC against Gram-positive/Gram-negative panel. The settings on record: Staphylococcus aureus. The series is classed as cell-based.
The subject of the next series is E. faecalis. Description: MIC against Gram-positive/Gram-negative panel. The series is classed as cell-based. The settings on record: Enterococcus faecalis.
Another series concerns E. faecium. Description: MIC against Gram-positive/Gram-negative panel. The format is cell-based. The following applies: Enterococcus faecium.
The subject of the next series is E. coli. Description: MIC against Gram-positive/Gram-negative panel. The series is classed as cell-based. The settings on record: Escherichia coli, ATCC25922.
For the next series, the system named is K. pneumoniae. Nature of the series: MIC against Gram-positive/Gram-negative panel. The series is classed as cell-based. The following applies: Klebsiella pneumoniae, ATCC10031.
The next series has as its system P. aeruginosa. Description: MIC against Gram-positive/Gram-negative panel. The format is cell-based. The settings on record: Pseudomonas aeruginosa, ATCC27853.
For a further series, the system named is A. baumannii. Nature of the series: MIC against Gram-positive/Gram-negative panel. The series is classed as cell-based. The following applies: Acinetobacter baumannii, ATCC17904.
A further series is described as follows: in vitro. The following applies: human, plasma.
A short description of another series: Plasma stability. The series is classed as in vitro ADME. The following applies: human plasma, 30 min; read-out: PS % Remaining (30 min). How it is done:
No significant metabolic liabilities were noted. Incubation of AJ-024 for 30 min with human liver microsomes and with human plasma proteins returned 63.8% and 95.9% of unchanged compound, respectively.

The target of the next series is CYP2C19 (Homo sapiens, UniProt P33261). Nature of the series: Inhibition of CYP enzyme activity (S-mephenytoin probe). The following applies: test compound 10 uM; activity expressed as percentage of control.
Sequence of CYP2C19 (P33261 whole entry): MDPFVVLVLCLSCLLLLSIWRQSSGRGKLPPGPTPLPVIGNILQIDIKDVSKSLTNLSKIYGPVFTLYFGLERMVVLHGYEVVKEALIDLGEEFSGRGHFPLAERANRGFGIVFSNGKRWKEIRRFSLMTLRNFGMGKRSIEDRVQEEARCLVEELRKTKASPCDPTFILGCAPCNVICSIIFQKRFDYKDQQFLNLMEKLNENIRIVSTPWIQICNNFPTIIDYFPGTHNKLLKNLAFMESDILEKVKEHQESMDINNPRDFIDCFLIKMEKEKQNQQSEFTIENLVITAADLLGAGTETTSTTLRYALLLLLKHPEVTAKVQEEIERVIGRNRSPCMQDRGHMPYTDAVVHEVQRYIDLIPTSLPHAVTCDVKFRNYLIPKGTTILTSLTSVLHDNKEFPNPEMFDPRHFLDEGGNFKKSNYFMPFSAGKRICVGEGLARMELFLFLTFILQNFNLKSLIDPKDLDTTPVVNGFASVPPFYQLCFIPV
Series [1] relates to C. difficile. Nature of the series: MIC by agar dilution, representative C. difficile strains. The series is classed as cell-based. The settings on record: Clostridioides difficile. In general terms: In agar dilution the substance is mixed into plates at graded concentrations.
Series [2] relates to C. difficile clinical isolates. Nature of the series: MIC by agar dilution, classified C. difficile clinical isolates (South Korea). The series is classed as cell-based, Clostridioides difficile.
The test system of series [3] is C. difficile ribotype 027. Nature of the series: Time-kill assay. The following applies: C. difficile ribotype 027, at 1×, 2× and 4× MIC; bactericidal = ≥3 log10 CFU/mL reduction vs starting inoculum. The format is cell-based, Clostridioides difficile. The protocol: The time-kill studies were performed by the CLSI method. […] Vancomycin was diluted in distilled water and AJ-024 was diluted in 1% (v/v) DMSO. […] Samples were removed at 0, 3, 6, and 24 h post inoculation, and serial 10-fold dilutions were performed. The number of viable cells were determined on BHI agar containing 0.5% yeast extract and 5% defibrinated sheep blood after 24 h of incubation. The plates were incubated at 37 ℃ in an anaerobic chamber. Antimicrobials were considered bactericidal at the lowest concentration that reduced the original inoculum by 3 log 10 CFU/mL at each of the time periods and bacteriostatic if the inoculum was reduced by 0 to 3 log 10 CFU/mL.

Series [4] deals with C. difficile ribotype 027. Description: Mouse IBD-C. difficile comorbidity infection model. The format is in vivo. The following applies: mice, DSS-induced IBD + C. difficile ribotype 027, 30 mg/kg once daily oral gavage, observed period of 15 days. The protocol:
C. difficile ribotype 027 was grown on blood agar plate and incubated for two days at 37 ℃ in an anaerobic chamber and sub-cultured on 70:30 sporulation medium to facilitate the sporulation of C. difficile ribotype 027. Briefly, the sporulation medium consists of 70% SMC (Bacto peptone 90 g, protease peptone 5 g, NH4SO4 1 g, tris base 1.5 g, agar 15 g per liter) and 30% BHIS (BHI agar with 0.5% yeast extract) agar. For inoculation, bacterial colonies were suspended in 0.9% saline solution and further diluted with saline solutions to adjust OD (Optical Density) 1.0 at 1/10 of original saline solutions. Groups of five male C57BL/6J mice were injected orally with a single 0.5 mL dose of the bacterial suspension.
All animal experiments were conducted in accordance with the ethical guidelines of the Ethics Review Committee for Animal Experimentation at Handong Global University (Republic of Korea, protocol #HGU-20211214-20). C57BL/6J male (4-week-old male weighing 20 to 22 g, Daehan Bio Link Co., Ltd., Eumseong, Korea) 5 mouse per group was used in C. difficile infection model. Mice were maintained in animal chambers kept at 23 ± 2 ℃ with 55% ± 20% relative humidity. An amount of 2% dextran sodium sulfate (DSS, MP biomedical, Irvine, CA, USA) was inoculated by drinking water for 5 days to cause colitis in mice. […]

Series [5] has as its system C. difficile. The settings on record: treatment of CDI; background statement of the introduction; cited from earlier work.
The mark [6] stands for this setting: ATCC25923, S. aureus ATCC 25923, read-out: MIC.
The mark [7] stands for this setting: ATCC43300, S. aureus ATCC 43300, read-out: MIC.
Setting [8] is: S. aureus clinical isolate, read-out: MIC.
Where [9] appears, read: ATCC29212, E. faecalis ATCC 29212, read-out: MIC.
Setting [10] is: E. faecalis clinical isolate, read-out: MIC.
[11] abbreviates: ATCC19434, E. faecium ATCC 19434, read-out: MIC.
Setting [12] is: E. faecium clinical isolate, read-out: MIC.
Where [13] appears, read: E. coli ATCC 25922, read-out: MIC.
The mark [14] stands for this setting: K. pneumoniae ATCC 10031, read-out: MIC.
The mark [15] stands for this setting: P. aeruginosa ATCC 27853, read-out: MIC.
[16] abbreviates: A. baumannii ATCC 17904, read-out: MIC.

Consider `CC=C(NC(=O)c1csc(-c2csc(-c3ccc4c(n3)-c3csc(n3)C(C(C)O)NC(=O)c3csc(n3)C(C(C)C)NC(=O)c3csc(n3)C(=CC)NC(=O)C(C(C)O)NC(=O)c3csc-4n3)n2)n1)C(=O)NCCn1c([N+](=O)[O-])cnc1C` (centres unmarked) [AJ-024], for which the MIC (commonly the least concentration at which growth counts as inhibited) was determined as 0.25 µg/mL (≈ 0.202 µM) in the series on S. aureus (setting [6]); 0.25 µg/mL (≈ 0.202 µM) in the series with S. aureus (setting [7]); 0.5 µg/mL (≈ 0.403 µM) in the series on S. aureus (setting [8]); 0.25 µg/mL (≈ 0.202 µM) in the series on E. faecalis (setting [9]); 0.25 µg/mL (≈ 0.202 µM) in the series with E. faecalis (setting [10]); 0.25 µg/mL (≈ 0.202 µM) with E. faecium (setting [11]). The minimum inhibitory concentration (MIC) in the series with E. faecium (setting [12]) was 0.5 µg/mL (≈ 0.403 µM); in the series on E. coli (setting [13]), more than 32 µg/mL; in the series with K. pneumoniae (setting [14]), more than 32 µg/mL; in the series with P. aeruginosa (setting [15]), more than 32 µg/mL; in the series with A. baumannii (setting [16]) it was more than 32 µg/mL.

`C[C@@H]1C[C@H]2[C@@H]3CCC4=CC(=O)C=C[C@]4(C)[C@@]3(F)[C@@H](O)C[C@]2(C)[C@@]1(O)C(=O)CO` [Dexamethasone, reference compound]: in “in vitro”, the fraction unbound (as a rule, free concentration divided by total concentration) at 4 h, 10 μM was 0.212.

For the compound `CCOC(=O)[C@H](CCc1ccccc1)N[C@@H](C)C(=O)N1CCC[C@H]1C(=O)O` [Enalapril], the amount remaining (commonly the share of the starting amount still present when the sample was taken) at 0.5 h in “Plasma stability” was 95.2%.

On to `CC(=O)N1CCN(c2ccc(OCC3COC(Cn4ccnc4)(c4ccc(Cl)cc4Cl)O3)cc2)CC1` (centres unmarked) [Ketoconazole, reference compound], for which the “CYP Inhibition 2C19” value at CYP2C19 is given as 97.6.

`CC(=O)NC[C@H]1CN(c2ccc(N3CCOCC3)c(F)c2)C(=O)O1` [LIZ, Linezolid]: the MIC in the series with S. aureus (setting [6]) stood at 2 µg/mL (≈ 5.93 µM); in the series on S. aureus (setting [7]) it was 2 µg/mL (≈ 5.93 µM); with S. aureus (setting [8]), 1 µg/mL (≈ 2.96 µM); in the series on E. faecalis (setting [9]) it was 2 µg/mL (≈ 5.93 µM); in the series on E. faecalis (setting [10]), 4 µg/mL (≈ 11.9 µM); in the series on E. faecium (setting [11]), 2 µg/mL (≈ 5.93 µM). Further, the MIC was 2 µg/mL (≈ 5.93 µM) with E. faecium (setting [12]); more than 32 µg/mL in the series with E. coli (setting [13]); more than 32 µg/mL with K. pneumoniae (setting [14]); more than 32 µg/mL in the series with P. aeruginosa (setting [15]); more than 32 µg/mL in the series on A. baumannii (setting [16]).

Turning to `CCN(CC)CCOC(=O)c1ccc(N)cc1` [Procaine], the amount remaining at 0.5 h in “Plasma stability” stood at 1.4%.

As for `CN[C@H](CC(C)C)C(=O)N[C@H]1C(=O)N[C@@H](CC(N)=O)C(=O)N[C@H]2C(=O)N[C@H]3C(=O)N[C@H](C(=O)N[C@H](C(=O)O)c4cc(O)cc(O)c4-c4cc3ccc4O)[C@H](O)c3ccc(c(Cl)c3)Oc3cc2cc(c3O[C@@H]2O[C@H](CO)[C@@H](O)[C@H](O)[C@H]2O[C@H]2C[C@](C)(N)[C@H](O)[C@H](C)O2)Oc2ccc(cc2Cl)[C@H]1O` [Vancomycin], the MIC was 1 µg/mL (≈ 0.69 µM) with C. difficile [1] (ATCC9689); 1 µg/mL (≈ 0.69 µM) with C. difficile [1] (ATCC17858); 1 µg/mL (≈ 0.69 µM) against C. difficile [1] (ATCC43255); 1 µg/mL (≈ 0.69 µM) with C. difficile [1] (ATCC51695); 1 µg/mL (≈ 0.69 µM) with C. difficile [1] (ATCCBAA1871); more than 32 µg/mL against S. aureus. The MIC was 0.5 µg/mL (≈ 0.345 µM) with S. aureus (ATCC25923); 0.5 µg/mL (≈ 0.345 µM) in the series on S. aureus (ATCC43300); more than 32 µg/mL in the series on E. faecalis; 0.5 µg/mL (≈ 0.345 µM) against E. faecalis (ATCC29212); more than 32 µg/mL against E. faecium; 1 µg/mL (≈ 0.69 µM) in the series with E. faecium (ATCC19434). The MIC in the series with E. coli, against K. pneumoniae, against P. aeruginosa and against A. baumannii was more than 32 µg/mL each time. In series [2], this compound came in with an MIC range of 0.5 to 2 µg/mL. Besides, the MIC50 (as a rule, the lowest concentration that inhibits either 50% of growth or 50% of the strains tested, depending on the study) in series [2] (Clostridioides difficile) amounted to 1 µg/mL (≈ 0.69 µM). Moreover, in [3], the “Killing activity (bactericidal / bacteriostatic)” value is on record as “bacteriostatic”. Also, in [4], the Survival rate is 80%. Further, in the series on C. difficile [5], the Rate of relapse is on record as 25% to 30%.
